Columns and labels:
[1] = tested on: Influenza A virus; test: Antiviral activity against influenza A virus (A/PR/8/34) infected in MDCK cells assessed as reduction in viral yield incubated for 30 mins prior to infection measured after 24 hrs by plaque reduction assay; type: functional, cell-based; details: A/Puerto Rico/8/1934(H1N1)
[2] = tested on: Influenza A virus; test: Antiviral activity against influenza A virus; type: functional
[3] = Antiviral activity against influenza A virus (A/WSN/33 (H1N1)) infected in MDCK cells after 48 hrs by crystal violet staining based plaque reduction assay; type: functional, cell-based, Influenza A virus (A/WSN/1933(H1N1))
[4] = Cytotoxicity against MDCK cells assessed as reduction in cell viability after 48 hrs by WST-1 assay; type: cell-based, Canis lupus familiaris; details: dog
[5] = Binding affinity to influenza A virus PA endonuclease by isothermal titration calorimetry
[6] = Antiviral activity against influenza A virus (A/HK/415742/09(H1N1)) infected in MDCK cells by plaque reduction assay; type: functional, cell-based, Influenza A virus (A/Hong Kong/415742/2009(H1N1))
[7] = Cytotoxicity against MDCK cells by MTT assay; type: cell-based, Canis lupus familiaris; details: dog
[8] = tested on: Influenza A virus; test: Antiviral activity against influenza A virus H1N1 infected in MDCK cells assessed as reduction of virus-induced cytopathic effect after 48 hrs by CellTiter-Glo luminescent assay; type: functional, cell-based
[9] = tested on: Influenza A virus (H1N1); test: Antiviral activity against influenza A virus H1N1-pdm09 infected in MDCK cells assessed as reduction of virus-induced cytopathic effect after 48 hrs by CellTiter-Glo luminescent assay; type: functional, cell-based
[10] = tested on: Influenza A virus H3N2; test: Antiviral activity against influenza A virus H3N2 infected in MDCK cells assessed as reduction of virus-induced cytopathic effect after 48 hrs by CellTiter-Glo luminescent assay; type: functional, cell-based
[11] = tested on: H5N1 subtype; test: Antiviral activity against influenza A virus H5N1 infected in MDCK cells assessed as reduction of virus-induced cytopathic effect after 48 hrs by CellTiter-Glo luminescent assay; type: functional, cell-based
[12] = Antiviral activity against influenza A virus H7N9 infected in MDCK cells assessed as reduction of virus-induced cytopathic effect after 48 hrs by CellTiter-Glo luminescent assay; type: functional, cell-based, H7N9 subtype
[13] = Antiviral activity against influenza A virus H9N2 infected in MDCK cells assessed as reduction of virus-induced cytopathic effect after 48 hrs by CellTiter-Glo luminescent assay; type: functional, cell-based, H9N2 subtype
[14] = tested on: Influenza B virus; test: Antiviral activity against influenza B virus infected in MDCK cells assessed as reduction of virus-induced cytopathic effect after 48 hrs by CellTiter-Glo luminescent assay; type: functional, cell-based
[15] = Cytotoxicity against MDCK cells assessed as reduction in cell viability after 48 hrs in serum free conditions by CellTiter-Glo luminescent assay; type: cell-based, Canis lupus familiaris; details: dog
[16] = Cytotoxicity against MDCK cells assessed as reduction in cell viability after 48 hrs in presence of 5 % serum by CellTiter-Glo luminescent assay; type: cell-based, Canis lupus familiaris; details: dog
[17] = Antiviral activity against influenza A virus (A/Chile/1/83) infected in MDCK cells after 2 to 3 days by crystal violet staining based plaque reduction assay; type: functional, cell-based, Influenza A virus (A/Chile/1/1983(H1N1))
[18] = Antiviral activity against influenza A virus (A/Sydney/5/97) infected in MDCK cells after 2 to 3 days by crystal violet staining based plaque reduction assay; type: functional, cell-based, Influenza A virus (A/Sydney/5/1997(H3N2))
[19] = tested on: Influenza B virus; test: Antiviral activity against influenza B virus (B/Yamagata/16/88) infected in MDCK cells after 2 to 3 days by crystal violet staining based plaque reduction assay; type: functional, cell-based; details: B/Yamagata/16/1988, MDCK
[20] = Cytotoxicity against MDCK cells after 48 hrs by MTT assay; type: cell-based, Canis lupus familiaris; details: dog
[21] = Inhibition of recombinant influenza A virus A/X-31 N-terminal PA endonuclease (1 to 217 residues) after 2 hrs using single stranded circular DNA plasmid M13mp18 as substrate by ethidium bromide staining based agarose gel electrophoresis; parameters: species or system Influenza A virus (A/X-31(H3N2))
[22] = tested on: Influenza A virus; test: Antiviral activity against influenza A virus ((A/PR/8/34) infected in MDCK cells assessed as reduction in viral yield after 24 hrs by qRT-PCR assay; type: functional; details: A/Puerto Rico/8/1934(H1N1)
[23] = Cytotoxicity against MDCK cells assessed as reduction in cell viability after 24 hrs by MTS assay; type: cell-based, Canis lupus familiaris; details: dog
[24] = Cytotoxicity against HEK293 cells assessed as reduction in cell viability after 24 hrs by MTS assay; type: cell-based; details: human
[25] = tested on: Influenza A virus; test: Antiviral activity against influenza A virus infected in HEK293 cells after 24 hrs by firefly luciferase reporter gene based vRNP-reconstitution assay; type: functional, cell-based; details: HEK293, 24 h
[26] = Inhibition of influenza A virus N-terminal PA endonuclease
[27] = Inhibition of recombinant influenza A virus A/X-31 N-terminal 6His tagged-PA endonuclease (1 to 217 residues) expressed in Escherichia coli BL21-CodonPlus cells after 2 hrs using single stranded circular DNA plasmid M13mp18 as substrate by ethidium bromide staining based agarose gel electrophoresis; parameters: species or system Influenza A virus (A/X-31(H3N2))
[28] = tested on: Influenza A virus; test: Antiviral activity against influenza A virus (A/PR/8/34) infected in HEK293 cells after 24 hrs by firefly luciferase reporter gene based vRNP-reconstitution assay; type: functional, cell-based; details: A/Puerto Rico/8/1934(H1N1), HEK293, 24 h
[29] = Cytotoxicity against HEK293 cells assessed as reduction in cell viability by MTS assay; type: cell-based; details: human
[30] = biological target: Polymerase acidic protein (Influenza A virus (A/Puerto Rico/8/1934(H1N1)), UniProt P03433); test: Inhibition of influenza A virus (A/PR/8/34) N-terminal PA endonuclease using 880 nucleotide ALMV cap1 primer RNA as substrate
[31] = Inhibition of recombinant influenza A virus A/X-31 N-terminal 6His tagged-PA endonuclease (1 to 217 residues) expressed in Escherichia coli BL21-CodonPlus cells after 1 hr using single stranded circular DNA plasmid M13mp18 as substrate by ethidium bromide staining based agarose gel electrophoresis; parameters: species or system Influenza A virus (A/X-31(H3N2))

## O=C(O)/C(O)=C/C(=O)C1(Cc2ccc(Cl)cc2)CCCN(S(=O)(=O)Cc2ccccc2)C1 (stereo unspecified)
[1]
  EC50: 0.18 to 0.71 µM

## Cn1cnc(-c2nc(C(=O)O)c(O)c(=O)[nH]2)c1
[2]
  EC50: > 50 µM

## OC(CN1CCCCC1)Cn1c2c(c3ccccc31)CCCC2 (stereo unspecified)
[3]
  EC50: 36.5 µM
[4]
  CC50 at 48 h: > 200 µM

## O=C1Nc2ccccc2/C1=N\N=C1/C/C(=C2\C(=O)Nc3ccccc32)C(=O)N1
[5]
  Kd: 1.1 µM
[6]
  EC50: 0.8 µM
[7]
  CC50: > 400 µM

## C[C@@H](N1CN([C@H]2c3ccccc3CSc3ccccc32)n2ccc(=O)c(O)c2C1=O)C(F)(F)F
[8]
  EC50: 0.0083 µM
[9]
  EC50: 0.007 µM
[10]
  EC50: 0.0085 µM
[11]
  EC50: 0.0139 µM
[12]
  EC50: 0.0154 µM
[13]
  EC50: 0.0122 µM
[14]
  EC50: 0.0128 µM
[15]
  CC50 at 48 h: 11.9 µM
[16]
  CC50 at 48 h: 86.2 µM

## O=C(O[C@@H]1Cc2c(O)cc(O)cc2O[C@@H]1c1ccc(O)c(O)c1)c1cc(O)c(O)c(O)c1 [EPICATECHIN GALLATE]
[17]
  EC50: 26.4 µM
[18]
  EC50: 22.2 µM
[19]
  EC50: 40.4 µM
[20]
  CC50 at 48 h: 526 µM

## O=C(O[C@@H]1Cc2c(O)cc(O)cc2O[C@@H]1c1cc(O)c(O)c(O)c1)c1cc(O)c(O)c(O)c1 [EPIGALOCATECHIN GALLATE]
[17]
  EC50: 28.4 µM
[18]
  EC50: 22.8 µM
[19]
  EC50: 26.1 µM
[20]
  CC50 at 48 h: 275 µM

## O=C(N/N=C/c1cc(O)c(O)c(O)c1)c1cc(O)c(O)c(O)c1
[21]
  IC50: 8.7 µM
[22]
  EC90: 3.5 µM
[23]
  CC50 at 24 h: > 200 µM
[24]
  CC50 at 24 h: > 200 µM
[25]
  EC50: 3.1 µM

## O=C(O)/C(O)=C/C(=O)C1(Cc2ccc(Cl)cc2)CCCN(Cc2ccccc2)C1 (stereo unspecified)
[1]
  EC50: 0.18 to 0.71 µM

## O=c1[nH]cc(Br)cc1O
[26]
  IC50: 16 µM

## CN(C)c1ccc(/C=C2\C/C(=N\N=C3\C(=O)Nc4ccccc43)NC2=O)cc1
[5]
  Kd: 1.3 µM
[6]
  EC50: 1.5 µM
[7]
  CC50: > 300 µM

## NC(=S)N/N=C/c1cccc(O)c1O
[27]
  IC50: 37 µM
[28]
  EC50: 63 µM
[29]
  CC50: > 200 µM

## CC(=O)Nc1cccc(-c2nc(C(=O)O)c(O)c(=O)[nH]2)c1
[2]
  EC50: > 50 µM

## CC(C)/C=C1\N=C(CC(C)C)C(=O)N(O)C1=O
[30]
  IC50: 5.1 to 5.5 µM

## O=C(NCc1ccc(F)cc1)c1cccc(O)c1O
[31]
  IC50: 33 µM

## NC(=O)N/N=C/c1cccc(O)c1O
[27]
  IC50: 24 µM
[28]
  EC50: 107 µM
[29]
  CC50: > 200 µM

## O=C(O)/C(O)=C/C(=O)C1(Cc2ccc(Cl)cc2)CCN(CC2CCCCC2)CC1
[1]
  EC50: 0.18 to 0.71 µM

## O=C(O)/C(O)=C/C(=O)c1cccn1Cc1ccc(F)cc1
[27]
  IC50: 0.8 µM

## O=C(O)/C(O)=C/C(=O)C1(Cc2ccc(Cl)cc2)CCN(Cc2ccc(Cl)cc2)CC1
[1]
  EC50: 0.18 to 0.71 µM
